Data published in patent publication US10821152B2, “Methods, agents and compositions for treatment of inflammatory conditions” (Betanien Hospital, priority 2014, dated 2020).
Values joined by “and” are separate entries in the source; they are usually repeats but may differ in a detail not shown here. Identical values can stand only once. Non-standard residues stand in square brackets, D forms with d. Residues, ends and D or L forms follow the SMILES beside them. *: point of attachment. dPhe(4-NHCONH2) = NC(=O)Nc1ccc(C[C@@H](N)C(=O)O)cc1; Dihydroorotyl(S) = O=C1C[C@@H](C(=O)*)NC(=O)N1; dPhe(4-Cl) = N[C@H](Cc1ccc(Cl)cc1)C(=O)O; Phe(4-NH2) = Nc1ccc(C[C@H](N)C(=O)O)cc1; d2Nal = N[C@H](Cc1ccc2ccccc2c1)C(=O)O; Lys(iPr) = CC(C)NCCCC[C@H](N)C(=O)O; d3Pal = N[C@H](Cc1cccnc1)C(=O)O

Tests used:
[1] = tested on: patients with rheumatoid arthritis; conditions: human, in vivo
Source text: They were not taking any therapies for osteoporosis during this period.

[2] = tested on: patient with ankylosing spondylitis; test: Treatment of ankylosing spondylitis patient (BASDAI, laboratory variables); type: in vivo, human; conditions: AS patient
Source text: Diagnosed with ankylosing spondylitis in 1984, HLAB27 positive, with repeated iridocyclitis. Used non-steroidal anti-inflammatory drugs previously. They were offered the TNF-alpha inhibitor Golilimumab in 2010. Their disease activity score was 8.9 in October 2010 (see below for explanation of disease activity score) on initiating Golilimumab; by the June 2012 this score had reduced to 6.6, but by May 2013 the effect had worn off and their score was 7.6. May 2013, they initiated Enbrel treatment, but their disease activity increased from 7.6 to 8.3. Due to their poor response to TNF-alpha therapy, they were offered the GnRH antagonist Degarelix in September 2014.
Disease activity in ankylosing spondylitis is measured by the BASDAI (Bath Ankylosing Spondylitis Disease Activity Index1), has been extensively validated in clinical trials, 2, 3 and is one of the most commonly used outcome measures in clinical trials. This is a componsite index that evaluates fatigue, axial and peripheral pain, stiffness and enthesopathy. Their BASDAI was at 8.7 at baseline. In September 2014 they received their first dose of Degarelix 240 mg sc. By 2 weeks, their BASDAI had reduced to 6.8, and by 6 weeks it had reduced to 5.8. This is the lowest BASDAI score they have ever had since we first started using this method of assessment 4 years ago in 2010. Their morning stiffness lasted 4 hours at baseline, by 6 weeks their morning stiffness had reduced to 2 hours. They had their second dose of Degarelix 80 mg s.c in October 2014. Lumbar flexion and maximum arm abduction were increased after 6 weeks of treatment.
Response to therapy in clinical practice is defined as improvement of 2 units or 50% on a 0-10 scale of the BASDAI, and expert opinion that the treatment should be continued. Their reduction by 6 weeks was 2.9 units, and 7.1 units with an 82% BASDAI score improvement by 9 weeks, and we shall continue treatment. A BASDAI 50% improvement is defined as a major clinical response. […] For comparison, approximately 50-60% of patients achieve a BASDAI 50 by 12 weeks on TNF inhibitors (4). Their ESR has decreased from 46 mm to 23 mm, which is their lowest ESR reading in 19 years. […] By 9 weeks of GnRH antagonist therapy, their kidney function has normalized, and fasting glucose reduced from 7.4 to 6.5 mmol/L. By 3 months, the effect on their ankylosing spondylitis remained, creatinine was at 98 umol/L, with a glomerular filtration rate of 66 ml/min/1.73 m2 in December 2014.

[3] = tested on: patients with risk factors for cardiovascular disease; test: Cardiovascular and metabolic risk factors in patients offered Degarelix; type: in vivo, human
Source text: In our patient group who were offered Degarelix, some patients had risk factors for cardiovascular disease, metabolic syndrome, lipidemia or hypoalphalipoproteinemia (low HDL). None of these patients had recently started medications prior to the GnRH antagonist that could explain the changes in blood pressure, HbA1C, fasting glucose or lipids. See Example 1 for patient information.

[4] = tested on: patient with systemic lupus erythematosus; test: Treatment of lupus patient with degarelix; type: in vivo, human
Source text: The patient has a medical history of a multimorbid patient. Systemic lupus erythematosus (SLE) was diagnosed in 1988 based on Raynauds, skin changes, arthralgia, high titre lupus anticoagulant, ANA, SSA, and SSB. Chilblain type changes in hands and feet (FIGS. 6-8). […] The patient suffered cardiac arrest in 2012, coronary stenosis was observed. The patient had kidney failure since 2012, required dialysis, stabilized creatinine around 150, osteoporosis, COPD, and is a smoker.
By September 2014, we had no treatment options left. Therefore, we decided to offer […] degarelix. GnRH antagonists have shown anti-inflammatory effects and therefore we considered that degarelix, a depot GnRH antagonist, may have a therapeutic effect in lupus. • Sep. 15, 2014, […] received […] loading dose of degarelix, 240 mg sc. Assessment of Response
Proteinuria decline is linked to improved lupus nephritis outcomes. Korbet et al studied 61 patients in a controlled trial comparing standard therapy with plasmapheresis for severe lupus nephritis. […] They had constant, increasing proteinuria in 2014.

CC(=O)N[C@H](Cc1ccc2ccccc2c1)C(=O)N[C@H](Cc1ccc(Cl)cc1)C(=O)N[C@H](Cc1cccnc1)C(=O)N[C@@H](CO)C(=O)N[C@@H](Cc1ccc(NC(=O)[C@@H]2CC(=O)NC(=O)N2)cc1)C(=O)N[C@H](Cc1ccc(NC(N)=O)cc1)C(=O)N[C@@H](CC(C)C)C(=O)N[C@@H](CCCCNC(C)C)C(=O)N1CCC[C@H]1C(=O)N[C@H](C)C(N)=O [Degarelix] (Ac-[d2Nal][dPhe(4-Cl)][d3Pal]S[Phe(4-NH2)](Dihydroorotyl(S))[dPhe(4-NHCONH2)]L[Lys(iPr)]P[dA]-NH2)
bone mineral density in hips [1]: improved
ASAS response (at least 80% improvement) [2]: achieved an ASAS 80
CRP ([2]; 10.09.14 (baseline)): <5
Creatinine (60-105 umol/L) ([2]; 10.09.14 (baseline)): 112↑ umol/L
ESR <20 mm ([2]; 10.09.14 (baseline)): 46 mm and 46↑ mm
Glomerular filtration rate (>60 ml/min/1.73 m^2) ([2]; 10.09.14 (baseline)): 56↓ ml/min/1.73 m^2
Glucose fasting (4.0-6.0 mmol/L) ([2]; 10.09.14 (baseline)): 7.4 mmol/L
Urate (230-480 umol/L) ([2]; 10.09.14 (baseline)): 515 umol/L and 515↑ umol/L
CRP ([2]; 10.11.14): <5
Creatinine (60-105 umol/L) ([2]; 10.11.14): 99 µmol/L
Glomerular filtration rate (>60 ml/min/1.73 m^2) ([2]; 10.11.14): 65 ml/min/1.73 m^2
Urate (230-480 umol/L) ([2]; 10.11.14): 426 µmol/L
Glucose fasting (4.0-6.0 mmol/L) ([2]; 10.11.14 (by 9 weeks)): 6.5 mmol/L
CRP ([2]; 24.09.14): <5
Creatinine (60-105 umol/L) ([2]; 24.09.14): 114↑ umol/L
ESR <20 mm ([2]; 24.09.14): 31↑ mm
Glomerular filtration rate (>60 ml/min/1.73 m^2) ([2]; 24.09.14): 55↓ ml/min/1.73 m^2
Urate (230-480 umol/L) ([2]; 24.09.14): 512↑ umol/L
CRP ([2]; 27.10.14): <5
Creatinine (60-105 umol/L) ([2]; 27.10.14): 111↑ umol/L
ESR <20 mm ([2]; 27.10.14): 28↑ mm
Glomerular filtration rate (>60 ml/min/1.73 m^2) ([2]; 27.10.14): 56↓ ml/min/1.73 m^2
Urate (230-480 umol/L) ([2]; 27.10.14): 495↑ umol/L
Lumbar flexion and maximum arm abduction ([2]; after 6 weeks of treatment): increased
BASDAI ([2]; baseline): 8.7
morning stiffness ([2]; baseline): 4 h
BASDAI ([2]; by 2 weeks): 6.8
creatinine ([2]; by 3 months (December 2014)): 98 µmol/L
glomerular filtration rate ([2]; by 3 months (December 2014)): 66 ml/min/1.73 m2
BASDAI ([2]; by 6 weeks): 5.8
BASDAI reduction ([2]; by 6 weeks): 2.9 units
morning stiffness ([2]; by 6 weeks): 2 h
BASDAI reduction ([2]; by 9 weeks): 7.1 units
BASDAI score improvement ([2]; by 9 weeks): 82%
kidney function ([2]; by 9 weeks): normalized
fasting glucose ([3]; Patient 1, October 2014): 6.3 mmol/L
fasting glucose ([3]; Patient 1, September 2014): 6.6 mmol/L
metabolic syndrome criteria ([3]; Patient 1, after degarelix treatment): no longer fulfills the criteria for metabolic syndrome
HBA1c (4.3-6.1%) ([3]; Patient 1, at 8 months): 5.7%
HBA1c (4.3-6.1%) ([3]; Patient 1, baseline): 6.4%
blood pressure ([3]; Patient 1, baseline): 151/90
HBA1c (4.3-6.1%) ([3]; Patient 1, by 2 weeks): 6.1%
fasting glucose (4.0-6.0) ([3]; Patient 4, 3 months after starting Degarelix): 6.6 mmol/L
fasting glucose (4.0-6.0) ([3]; Patient 4, April 2014, before Degarelix): 8.9 mmol/L
fasting glucose (4.0-6.0) ([3]; Patient 4, December 2013, before Degarelix): 8.5 mmol/L
HBA1c (4.3-6.1%) ([3]; Patient 4, baseline): 6.9%
HBA1c (4.3-6.1%) ([3]; Patient 4, by 1 month): 6.6%
HBA1c (4.3-6.1%) ([3]; Patient 4, by 2 months): 6.4%
HBA1c (4.3-6.1%) ([3]; Patient 4, by 4 months): 6.2%
fasting glucose (4.0-6.0) ([3]; Patient 4, by 4 months): 6.0 mmol/L
HBA1c (4.3-6.1%) ([3]; Patient 4, by 12 months): 5.9%
HDL (1.0-2.7 mmol/L) ([3]; Patient 7, baseline September 2014): 0.68 mmol/L
HDL (1.0-2.7 mmol/L) ([3]; Patient 7, by 1 week): 0.73 mmol/L
HDL (1.0-2.7 mmol/L) ([3]; Patient 7, by 2 weeks): 0.75 mmol/L
HDL (1.0-2.7 mmol/L) ([3]; Patient 7, by 3 weeks): 1.13 mmo/L
ANA (<1) ([4]; 07.11.14): 26↑
FSH (<12) ([4]; 07.11.14): <0.1
LH (<12) ([4]; 07.11.14): <0.3
Total urinary protein ([4]; 07.11.14): 0.17 g/L
ANA (<1) ([4]; 14.10.14): 28↑
FSH (<12) ([4]; 14.10.14): <0.1
Total urinary protein ([4]; 14.10.14): 0.15^2 g/L
FSH (<12) ([4]; 15.09.14 (day of loading dose)): 14↑
LH (<12) ([4]; 15.09.14 (day of loading dose)): 11
Total urinary protein ([4]; 15.09.14 (day of loading dose)): 0.78↑ g/L
ANA (<1) ([4]; 15.09.14 (day of loading dose), out of range): >32↑
FSH (<12) ([4]; 23.09.14): 2
LH (<12) ([4]; 23.09.14): <0.3
Total urinary protein ([4]; 23.09.14): 0.75↑ g/L
proteinuria ([4]; at 2 months): in remission
morning pain ([4]; before treatment): 3.5 h
proteinuria ([4]; by 1 month): complete remission
morning pain ([4]; by 8 weeks): 0 h
morning pain ([4]; by day 5): 1.5 h
morning pain ([4]; by day 10): 0 h
ulcers on hands and feet ([4]; by day 10 of treatment): several ulcers had healed
ANA (<1) ([4]; column 23.09.14 (25.09.14)): 31↑
